The target of one assay is T1, SQV-4 (Caenorhabditis elegans, UniProt Q19905, T2A).
T1 construct: were used for PCR-amplification of the sqv-4 ORF, and the resulting product was digested with NcoI and XhoI and cloned into pET21d; made in house; host or cells: E. coli BL21 pLysS, pET21d; soluble fraction used without purification
The class given is biochemical, C. elegans. As to conditions: UDP-glucose replaced; 100 μM NAD+ and 250 μM nucleotide sugar. The source says:
The sqv-4 coding sequences corresponding to the wild-type, n2827, and n2840 alleles were cloned into the pET21d E. coli expression vector and transformed into BL21 pLysS. The oligonucleotides 5′-[…]-3′ (SEQ ID NO:53) and 5′-[…]-3′ (SEQ ID NO:54) were used to generate R353H n2827 and T4101 n2840 mutations, respectively, by site-directed mutagenesis. The oligonucleotides 5′-[…]-3′ (SEQ ID NO:55) and 5′-[…]-3′ (SEQ ID NO:56) were used for PCR-amplification of the sqv-4 ORF, and the resulting product was digested with NcoI and XhoI and cloned into pET21d. All three proteins have a threonine to alanine mutation in the second amino acid because of the addition of an NcoI site at the 5′ end. SQV-4 expression was induced by incubation with 1 mM IPTG for three to four hours at 37° C. E. coli were pelleted and resuspended in 50 mM Tris-HCl pH 7.5, 1 mM DTT, 1 mM EDTA, 1 mM PMSF, 2 μg/ml pepstatin A, and aprotinin and lysed using a French pressure cell. The soluble fraction was separated from the insoluble inclusion bodies by centrifugation at 12,000 g for 20 minutes.
All assays were performed at room temperature (20 to 22° C.) in 50 mM Tris-HCl, 2 mM dithiothrietol (DTT), pH 8.7. The initial velocity of the reaction was determined from time points during the first 60 seconds after addition of the SQV-4 extract.

Assay [1] addresses T2, chondroitin synthase (Caenorhabditis elegans, UniProt Q7Z1Z1).
T2 construct: wild-type (N2) animals were used to prepare worm protein extracts; from tissue; host or cells: whole C. elegans hermaphrodites (young adults), sonicated protein extract
T2 sequence (Q7Z1Z1 1-736): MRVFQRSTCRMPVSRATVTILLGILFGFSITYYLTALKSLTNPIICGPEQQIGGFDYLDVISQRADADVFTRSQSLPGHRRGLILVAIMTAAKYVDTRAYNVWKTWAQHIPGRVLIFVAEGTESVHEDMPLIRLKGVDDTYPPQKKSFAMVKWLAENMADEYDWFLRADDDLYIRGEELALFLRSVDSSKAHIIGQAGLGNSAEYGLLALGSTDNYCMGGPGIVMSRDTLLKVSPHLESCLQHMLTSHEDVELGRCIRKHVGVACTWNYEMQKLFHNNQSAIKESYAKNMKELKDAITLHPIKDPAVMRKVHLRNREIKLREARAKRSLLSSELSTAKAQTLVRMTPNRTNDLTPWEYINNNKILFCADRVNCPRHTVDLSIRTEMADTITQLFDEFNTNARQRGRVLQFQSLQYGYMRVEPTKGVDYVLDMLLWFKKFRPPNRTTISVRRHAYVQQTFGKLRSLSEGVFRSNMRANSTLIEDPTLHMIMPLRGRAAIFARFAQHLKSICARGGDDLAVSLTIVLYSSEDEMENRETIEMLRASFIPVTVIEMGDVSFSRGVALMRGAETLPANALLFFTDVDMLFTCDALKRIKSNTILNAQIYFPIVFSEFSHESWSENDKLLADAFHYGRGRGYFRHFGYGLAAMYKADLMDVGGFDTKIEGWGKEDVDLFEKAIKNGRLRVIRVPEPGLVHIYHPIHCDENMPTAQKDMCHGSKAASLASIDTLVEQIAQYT
Briefly: GlcAT (glucuronyl transferase) assay of chondroitin synthase activity in worm protein extracts. The assay is classed as biochemical. The method, then: (§1) sqv-5(n3611), sqv-5(n3611)/hT2, and wild-type (N2) animals were used to prepare worm protein extracts. These extracts were tested for chondroitin synthase activity using standard methods, for example, in DeAngelis et al., (J. Biol. Chem. 27:24124-24129, 2000).
(§2) A desulfated chondroitin acceptor was used for the GalNAcT (N-acetylgalactosamyl transferase) assay. Desulfated and β-glucuronidase-treated chondroitin acceptor was used for the GlcAT (glucuronyl transferase) assay.
(§3) The enzymatic activity of SQV-5 was assayed as follows. SQV-5(n3611), sqv-5(n3611)/hT2, and wild-type N2 hermaphrodites were picked as L4 larvae by visual examination of the vulva using a dissecting microscope. The worms staged were allowed to grow for an additional twenty-three to twenty-seven hours at 22° C., re-examined, then transferred to 1.7-ml plastic tubes containing sterile water. The staged worms were washed once with water and twice with 50 mM Tris, pH 7.5, then frozen in a 50 μl volume using liquid nitrogen, and stored at −70° C.
(§4) Worm extracts were assayed for GIcAT glucoronosyltransferase activity by combining 1.3×10^5 cpm UDP-^3H-glucuronic acid donor (NEN), 6 μg β-glucuronidase-treated chondroitin acceptor, and 2.7 μg worm extract in a 25 μl reaction volume containing 0.05% Triton X-100, 10 mM MnCl2, and 100 μM ATP, pH 6.5. GalNAcT activity was detected by combining 1.3 to 3×10^5 cpm UDP-^3H-GalNAc donor (NEN), 12 μg chondroitin acceptor, and 6.7 μg worm extract in a 25 μl reaction volume containing 0.05% Triton X-100 and 10 mM MnCl2, pH 6.5. […] Pelleted material was resuspended in water and counted by liquid scintillation.
(§5) The chondroitin acceptor used was prepared as follows. […] Uronic acid concentration of both preparations was determined by the Carbazole method (Bitter, et al., Anal. Biochem. 4:330-334, 1962).

Assay [2] has as its system chondroitin synthase. Described as above. The class given is biochemical. As to conditions: extract genotype sqv-5/sqv-5 (sqv-5(n3611)). On the procedure:
as §1, §2, §3, §4, §5

This note sets out measurements from patent US7442501B2, “SQV nucleic acids and polypeptides” (Massachusetts Institute of Technology, priority 2002, dated 2008).

Each structure is given as a SMILES string.

T1 sequence (Q19905 whole entry T2A): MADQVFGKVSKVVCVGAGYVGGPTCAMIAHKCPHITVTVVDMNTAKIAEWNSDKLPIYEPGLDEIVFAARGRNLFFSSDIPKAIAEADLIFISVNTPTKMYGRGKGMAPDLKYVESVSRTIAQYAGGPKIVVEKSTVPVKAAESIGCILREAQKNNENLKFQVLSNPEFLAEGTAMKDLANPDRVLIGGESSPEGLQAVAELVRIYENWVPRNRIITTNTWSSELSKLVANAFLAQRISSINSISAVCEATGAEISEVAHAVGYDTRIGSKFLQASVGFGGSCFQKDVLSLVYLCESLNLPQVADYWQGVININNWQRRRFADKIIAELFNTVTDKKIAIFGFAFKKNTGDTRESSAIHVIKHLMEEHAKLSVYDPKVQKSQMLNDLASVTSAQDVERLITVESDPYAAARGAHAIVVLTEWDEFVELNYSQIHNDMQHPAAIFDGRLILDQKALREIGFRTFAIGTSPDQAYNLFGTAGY

In the case of `O=C(O)[C@H]1O[C@H](OP(=O)(O)OP(=O)(O)OC[C@H]2O[C@@H](n3ccc(=O)[nH]c3=O)[C@H](O)[C@@H]2O)[C@H](O)[C@@H](O)[C@@H]1O` [UDP-glucuronic acid], at SQV-4, the “NAD+ reduction” value is “undetectable”. In addition, the CPM on chondroitin synthase [1] (extract genotype +/+ (wild-type)) worked out at 1820 CPM; on chondroitin synthase [1] (extract genotype +/sqv-5 (sqv-5(n3611)/hT2)) it was 1369 CPM; in the assay on chondroitin synthase [2] it was 109 CPM.
